Species: Rattus norvegicus
Assay: Open TG-GATES - Regimen: Single
Assay type: toxicity, organism-based, Sprague-Dawley
Set-up: regimen Single, gender Male, age 6 weeks
Details: in vivo, po, 60 mg/kg, route gavage, dose level Low; for APTT / Bas / Eos / Fbg / Hb / Ht / MCH / MCHC / MCV / Mono / PT / Plat / RBC / Ret / WBC: tissue Blood; for ALP / ALT / CRE / DBIL / GLC / IP / K / LDH / Na / PL / RALB / TBIL / TC / TG / TP / gamma-GTP: tissue Plasma

`CCN(CC)C(=S)SSC(=S)N(CC)CC` gave a TERMINAL_BW (3 h) of 215.7 g, an APTT (3 h) of 20.7 s and a Bas (3 h) of 0%. It also gave an Eos (3 h) of 0.6%, a Fbg (3 h) of 298.2 mg/dL and a Hb (3 h) of 12.9 g/dL. For the same compound, the Ht (3 h) was 39.9%, the MCH (3 h) was 20.2 pg and the MCHC (3 h) was 32.3%. It also gave an MCV (3 h) of 62.6 fL, a Mono (3 h) of 3.6% and a PT (3 h) of 16.3 s. For the same compound, the Plat (3 h) was 128.9 x10_4/uL, the RBC (3 h) was 638.2 x10_4/ul and the Ret (3 h) was 8.8%. It also gave a WBC (3 h) of 84.6 x10_2/uL, an ALP (3 h) of 1871.6 IU/L and an ALT (3 h) of 41.6 IU/L. The CRE (3 h) was 0.1 mg/dL, the DBIL (3 h) was 0.002 mg/dL and the GLC (3 h) was 178.2 mg/dL. The IP (3 h) was 8.8 mg/dL, the K (3 h) was 4.1 meq/L and the LDH (3 h) was 188.6 IU/L. For the same compound, the Na (3 h) was 141.4 meq/L, the PL (3 h) was 128.6 mg/dL and the RALB (3 h) was 3.2 g/dL. The TBIL (3 h) was 0.016 mg/dL, the TC (3 h) was 71 mg/dL and the TG (3 h) was 70 mg/dL. The TP (3 h) was 5.5 g/dL, the gamma-GTP (3 h) was 1.4 IU/L and the TERMINAL_BW (6 h) was 211.5 g. The APTT (6 h) was 23.2 s, the Bas (6 h) was 0% and the Eos (6 h) was 0.8%. It also gave a Fbg (6 h) of 293 mg/dL, a Hb (6 h) of 13.2 g/dL and a Ht (6 h) of 40.9%. For the same compound, the MCH (6 h) was 20.3 pg, the MCHC (6 h) was 32.4% and the MCV (6 h) was 62.6 fL. For the same compound, the Mono (6 h) was 3.4%, the PT (6 h) was 16.3 s and the Plat (6 h) was 125.2 x10_4/uL. The RBC (6 h) was 653.8 x10_4/ul, the Ret (6 h) was 7.3% and the WBC (6 h) was 99 x10_2/uL. For the same compound, the ALP (6 h) was 1256.6 IU/L, the ALT (6 h) was 36.4 IU/L and the CRE (6 h) was 0.1 mg/dL. For the same compound, the DBIL (6 h) was 0 mg/dL, the GLC (6 h) was 179 mg/dL and the IP (6 h) was 9.1 mg/dL. It also gave a K (6 h) of 4.3 meq/L, an LDH (6 h) of 181.8 IU/L and a Na (6 h) of 141.6 meq/L. For the same compound, the PL (6 h) was 125.2 mg/dL, the RALB (6 h) was 3 g/dL and the TBIL (6 h) was 0.008 mg/dL. For the same compound, the TC (6 h) was 68.6 mg/dL, the TG (6 h) was 59.2 mg/dL and the TP (6 h) was 5.3 g/dL. For the same compound, the gamma-GTP (6 h) was 1 IU/L, the TERMINAL_BW (9 h) was 210.6 g and the APTT (9 h) was 23 s. It also gave a Bas (9 h) of 0%, an Eos (9 h) of 0.2% and a Fbg (9 h) of 307.2 mg/dL. It also gave a Hb (9 h) of 13.1 g/dL, a Ht (9 h) of 40.1% and an MCH (9 h) of 20.2 pg. It also gave an MCHC (9 h) of 32.5%, an MCV (9 h) of 62.3 fL and a Mono (9 h) of 2.6%. It also gave a PT (9 h) of 15.8 s, a Plat (9 h) of 121 x10_4/uL and an RBC (9 h) of 645 x10_4/ul. For the same compound, the Ret (9 h) was 7.5%, the WBC (9 h) was 93.7 x10_2/uL and the ALP (9 h) was 1515 IU/L. It also gave an ALT (9 h) of 32.8 IU/L, a CRE (9 h) of 0.1 mg/dL and a DBIL (9 h) of 0.002 mg/dL. For the same compound, the GLC (9 h) was 188.8 mg/dL, the IP (9 h) was 9.6 mg/dL and the K (9 h) was 4.1 meq/L. It also gave an LDH (9 h) of 160.4 IU/L, a Na (9 h) of 141.2 meq/L and a PL (9 h) of 149.4 mg/dL. The RALB (9 h) was 3.1 g/dL, the TBIL (9 h) was 0.018 mg/dL and the TC (9 h) was 81.6 mg/dL. The TG (9 h) was 99 mg/dL, the TP (9 h) was 5.5 g/dL and the gamma-GTP (9 h) was 1 IU/L. The TERMINAL_BW (24 h) was 213.4 g, the APTT (24 h) was 21.8 s and the Bas (24 h) was 0%. It also gave an Eos (24 h) of 0.4%, a Fbg (24 h) of 274.6 mg/dL and a Hb (24 h) of 12.6 g/dL. It also gave a Ht (24 h) of 39%, an MCH (24 h) of 20.3 pg and an MCHC (24 h) of 32.3%. It also gave an MCV (24 h) of 62.9 fL, a Mono (24 h) of 2% and a PT (24 h) of 16.6 s. It also gave a Plat (24 h) of 117.1 x10_4/uL, an RBC (24 h) of 620.4 x10_4/ul and a Ret (24 h) of 7%. It also gave a WBC (24 h) of 124.3 x10_2/uL, an ALP (24 h) of 1307.4 IU/L and an ALT (24 h) of 33.8 IU/L. For the same compound, the CRE (24 h) was 0.2 mg/dL, the DBIL (24 h) was 0 mg/dL and the GLC (24 h) was 178 mg/dL. For the same compound, the IP (24 h) was 6.5 mg/dL, the K (24 h) was 4.3 meq/L and the LDH (24 h) was 187.8 IU/L. For the same compound, the Na (24 h) was 141.4 meq/L, the PL (24 h) was 128.2 mg/dL and the RALB (24 h) was 2.8 g/dL. For the same compound, the TBIL (24 h) was 0.006 mg/dL, the TC (24 h) was 74.6 mg/dL and the TG (24 h) was 98 mg/dL. The TP (24 h) was 5.1 g/dL and the gamma-GTP (24 h) was 1 IU/L.
